Measurements published in ChEMBL document CHEMBL1156829 (Proc Natl Acad Sci U S A, 2008).
Counter-ions that a name gives are not always drawn.

Assays:
Plasmodium falciparum [1] = test: NOVARTIS: Inhibition of Plasmodium falciparum 3D7 (drug-susceptible) proliferation in erythrocyte-based infection assay; format: functional, organism-based; conditions: Plasmodium falciparum, 3D7
Plasmodium falciparum [2] = test: NOVARTIS: Inhibition of Plasmodium falciparum W2 (drug-resistant) proliferation in erythrocyte-based infection assay; format: functional, organism-based; conditions: Plasmodium falciparum, W2; read-out: EC50
[3] = NOVARTIS: Cytotoxicity against human hepatocellular carcinoma cell line (Huh7); format: toxicity, cell-based, Huh-7; conditions: Huh7 cells (hepatocellular carcinoma cell line)

With `CC[C@H]1CN2CCc3cc(OC)c(OC)cc3[C@@H]2C[C@@H]1C[C@H]1NCCc2cc(O)c(OC)cc21` [CEPHAELINE HYDROBROMIDE] the EC50 (Plasmodium falciparum [1]) was 3.61 nM, the EC50 (Plasmodium falciparum [2]) was 4.23 nM and the CC50 [3] was 26.1 nM.

Molecule `CC(=O)Nc1sc(C)c(C)c1N=Nc1ccc(S(=O)(=O)O)cc1` has an EC50 (Plasmodium falciparum [1]) of 1150 nM, an EC50 (Plasmodium falciparum [2]) of over 1180 nM and a CC50 [3] of over 10000 nM.

`COc1ccc(CC(=O)Nc2sc3c(c2C(=O)Nc2cccc4ccccc24)CCCC3)cc1` gave an EC50 (Plasmodium falciparum [1]) of over 1250 nM, an EC50 (Plasmodium falciparum [2]) of 1130 nM and a CC50 [3] of over 10000 nM.

Work on `c1ccc(N=c2n(-c3ccccc3)c(=Nc3ccccc3)n(-c3ccccc3)c(=Nc3ccccc3)n2-c2ccccc2)cc1` yielded an EC50 (Plasmodium falciparum [1]) of over 1350 nM, an EC50 (Plasmodium falciparum [2]) of over 468 nM and a CC50 [3] of over 10000 nM.

For `Oc1ccc(-c2ccnc3cc(Cl)ccc23)cc1CNC1CCCCC1`, the EC50 (Plasmodium falciparum [1]) was 119 nM, the EC50 (Plasmodium falciparum [2]) was 15.2 nM and the CC50 [3] was 5940 nM.

With `CN(C)CCNc1ncnc2c1[nH]c1ccc(Cl)cc12` the EC50 (Plasmodium falciparum [1]) was 632 nM, the EC50 (Plasmodium falciparum [2]) was 886 nM and the CC50 [3] was 20400 nM.

For `O=C(CN1CCCC1C(c1ccccc1)c1ccccc1)N1CCSCC1` (stereo not given), the EC50 (Plasmodium falciparum [1]) was over 1250 nM, the EC50 (Plasmodium falciparum [2]) was over 1080 nM and the CC50 [3] was 12000 nM.

`CC(C)(C)CC(C)(C)Nc1c(-c2ccccc2OC(=O)C2CCC2)nc2ccccn12` showed an EC50 (Plasmodium falciparum [1]) of 729 nM, an EC50 (Plasmodium falciparum [2]) of 104 nM and a CC50 [3] of over 10000 nM.

With `CCN1CCN(c2ccc(Nc3c4ccccc4nc4ccccc34)cc2)CC1` the EC50 (Plasmodium falciparum [1]) was 50.7 nM, the EC50 (Plasmodium falciparum [2]) was 160 nM and the CC50 [3] was 17400 nM.

Work on `COc1ccc(S(=O)(=O)N(C)CCCNc2ccnc3cc(Cl)ccc23)cc1` yielded an EC50 (Plasmodium falciparum [1]) of 115 nM, an EC50 (Plasmodium falciparum [2]) of 197 nM and a CC50 [3] of 10100 nM.

Molecule `O=C(C[n+]1ccc(/C=N/O)cc1)NC12CC3CC(CC(C3)C1)C2` has an EC50 (Plasmodium falciparum [1]) of over 12500 nM, an EC50 (Plasmodium falciparum [2]) of 3070 nM and a CC50 [3] of 42200 nM.

Work on `CC(C)(C)c1ccc(C(=O)NCCCCNc2ccnc3cc(Cl)ccc23)cc1` yielded an EC50 (Plasmodium falciparum [1]) of 176 nM, an EC50 (Plasmodium falciparum [2]) of 230 nM and a CC50 [3] of over 10900 nM.

Molecule `Cc1cc(C)n2nc(-c3ccc(Cl)cc3)cc2n1` has an EC50 (Plasmodium falciparum [1]) of over 685 nM, an EC50 (Plasmodium falciparum [2]) of over 1250 nM and a CC50 [3] of over 10000 nM.

In the case of `CC(=O)N(C1=C(N2CCOCC2)C(=O)c2ccccc2C1=O)c1cc(C)cc(C)c1`, the EC50 (Plasmodium falciparum [1]) is reported as 40.1 nM, the EC50 (Plasmodium falciparum [2]) is reported as 63.3 nM and the CC50 [3] is reported as 6940 nM.

Molecule `COc1ccc(/C=C2\SC(=Nc3ccc(F)cc3)NC2=O)c(OC)c1` has an EC50 (Plasmodium falciparum [1]) of 270 nM, an EC50 (Plasmodium falciparum [2]) of 543 nM and a CC50 [3] of over 10000 nM.

In the case of `Cc1nc2ccccc2n1S(C)(=O)=O`, the EC50 (Plasmodium falciparum [1]) is reported as 59.6 nM, the EC50 (Plasmodium falciparum [2]) is reported as 54.3 nM and the CC50 [3] is reported as over 10000 nM.

For `COc1ccccc1NC1=C(N2CCCCC2)C(=O)c2ccccc2C1=O`, the EC50 (Plasmodium falciparum [1]) was 28 nM, the EC50 (Plasmodium falciparum [2]) was 40.1 nM and the CC50 [3] was 7870 nM.

With `COc1ccc(OC)c(C2CC(=O)C3=C(C2)NC(=O)CC3c2ccc(OC)c(OC)c2)c1` (stereo not given) the EC50 (Plasmodium falciparum [1]) was 616 nM, the EC50 (Plasmodium falciparum [2]) was 118 nM and the CC50 [3] was over 100000 nM.

`Cc1ccc(NC(=O)C2CC3c4ccccc4C2c2ccccc23)cc1` (stereo not given) showed an EC50 (Plasmodium falciparum [1]) of over 12500 nM, an EC50 (Plasmodium falciparum [2]) of 2550 nM and a CC50 [3] of over 100000 nM.

Work on `Cc1sc2nc(C3CC3)n(C3CCN(C(=O)c4ccccn4)CC3)c(=O)c2c1C` yielded an EC50 (Plasmodium falciparum [1]) of over 1250 nM, an EC50 (Plasmodium falciparum [2]) of 2020 nM and a CC50 [3] of over 10000 nM.

`CC(C)N(C(=O)Cn1ccc(=N)c2ccccc21)C(C)C` showed an EC50 (Plasmodium falciparum [1]) of 1240 nM, an EC50 (Plasmodium falciparum [2]) of 1650 nM and a CC50 [3] of over 100000 nM.

For `O=C(Nc1ccc(Cl)c(Cl)c1)Nc1ccc(Cl)c(Cl)c1`, the EC50 (Plasmodium falciparum [1]) was 1030 nM, the EC50 (Plasmodium falciparum [2]) was 460 nM and the CC50 [3] was 20200 nM.

`COc1cc(OC)c(N(C)S(=O)(=O)c2cccc(C(=O)OCC(=O)Nc3ccccc3C(C)=O)c2)cc1Cl` gave an EC50 (Plasmodium falciparum [1]) of 8400 nM, an EC50 (Plasmodium falciparum [2]) of 7310 nM and a CC50 [3] of over 100000 nM.

`COc1ccc(C(=NO)C2CC2c2ccc(Cl)cc2)cc1` (stereo not given) gave an EC50 (Plasmodium falciparum [1]) of 735 nM, an EC50 (Plasmodium falciparum [2]) of 668 nM and a CC50 [3] of over 10000 nM.

`CC(C)(C)c1ccc(Cn2nnc3c(O)nc(C4CCN(C(=O)c5ccccc5)CC4)nc32)cc1` gave an EC50 (Plasmodium falciparum [1]) of 242 nM, an EC50 (Plasmodium falciparum [2]) of 852 nM and a CC50 [3] of over 100000 nM.

Molecule `COc1cc(NC(C)CCCN(Cc2ccc(F)cc2)C(=O)CCc2ccccc2)c2ncccc2c1` (stereo not given) has an EC50 (Plasmodium falciparum [1]) of 1400 nM, an EC50 (Plasmodium falciparum [2]) of 361 nM and a CC50 [3] of 4620 nM.

For `CCN(CC)CCN1C(=O)c2ccccc2NC1c1ccc(Br)cc1` (stereo not given), the EC50 (Plasmodium falciparum [1]) was 218 nM, the EC50 (Plasmodium falciparum [2]) was 67.1 nM and the CC50 [3] was 47800 nM.

In the case of `O=C(c1cc2cc(Br)ccc2o1)N1CCc2c([nH]c3ccccc23)C1c1ccc(Cl)cc1` (stereo not given), the EC50 (Plasmodium falciparum [1]) is reported as 887 nM, the EC50 (Plasmodium falciparum [2]) is reported as 226 nM and the CC50 [3] is reported as over 100000 nM.

`O=c1c2c([nH]c3ccccc13)CCCCCCCCCC2` gave an EC50 (Plasmodium falciparum [1]) of 277 nM, an EC50 (Plasmodium falciparum [2]) of 671 nM and a CC50 [3] of over 100000 nM.

`Cc1ccc(Sc2c(C)nn(C(=O)c3cccnc3)c2C)cc1` gave an EC50 (Plasmodium falciparum [1]) of 322 nM, an EC50 (Plasmodium falciparum [2]) of over 677 nM and a CC50 [3] of over 10000 nM.

Work on `CCOC(=O)c1c(NC(=O)CSc2nnc(CNC(=O)c3cccc(C)c3)n2Cc2ccccc2)sc2c1CCCC2` yielded an EC50 (Plasmodium falciparum [1]) of over 1090 nM, an EC50 (Plasmodium falciparum [2]) of over 1460 nM and a CC50 [3] of over 14000 nM.

Work on `CCN(CC)C/C=C/C1(O)c2ccccc2-c2ccccc21` yielded an EC50 (Plasmodium falciparum [1]) of 1010 nM, an EC50 (Plasmodium falciparum [2]) of 221 nM and a CC50 [3] of over 10000 nM.

With `Cc1cc(/C=C2\SC(=Nc3ccccc3)N(C3CCCCC3)C2=O)c(C)n1-c1ccc(Br)cc1` the EC50 (Plasmodium falciparum [1]) was 476 nM, the EC50 (Plasmodium falciparum [2]) was over 542 nM and the CC50 [3] was over 10000 nM.

In the case of `CCn1cc(C(=O)NCCC2=CCCCC2)c(=O)c2cc(S(=O)(=O)N(C)C)ccc21`, the EC50 (Plasmodium falciparum [1]) is reported as over 1250 nM, the EC50 (Plasmodium falciparum [2]) is reported as over 449 nM and the CC50 [3] is reported as over 10000 nM.

`CCCN1CCc2c(sc3nc(SCC(=O)c4ccccc4)nc(N)c23)C1` showed an EC50 (Plasmodium falciparum [1]) of 1420 nM, an EC50 (Plasmodium falciparum [2]) of 1010 nM and a CC50 [3] of over 100000 nM.
